As usually defined, the IC50 is the concentration at which inhibition is half-maximal. The term DC50 denotes the midpoint of the concentration-degradation curve.

The values that follow come from patent US12569464B2, “Protein-protein interaction inducing technology” (Arvinas Operations, Inc., priority 2016, dated 2026).

Where two headings read alike, the source gives them in different places.

Assay [1] deals with c-Myc expression. The experiment in a line: c-Myc ELISA assay in 22RV1 cells. The class given is cell-based, human. As for the experimental part:
It is composed of a BRD4-binding warhead which is connected to a VHL-binding warhead by a linear connector. […] Either the inhibition of BRD4 (by binding and blocking the active site of BRD4) or the degradation of BRD4 leads to the down-regulation of the expression level of a downstream protein c-Myc. […] MD simulation of a ternary system composed of BRD4 bromodomain 1, the ligand L and the complex of VHL with EB and EC in the presence of explicit water was performed.
The connector linking the BRD-4 binding warhead and the cereblon-binding warhead was systematically probed from 2 to 8 atoms. For comparison, the parent inhibitor of BRD4 (compound JQ1) was also prepared. […] The expression level of a downstream protein c-Myc was measured. In this assay, either the inhibition of BRD4 (by binding and blocking the active site of BRD4) or the degradation of BRD4 leads to the down-regulation of the expression level of c-Myc.
The connector linking the BRD4 warhead and the VHL-binding warhead was systematically probed from 5 to 19 atoms. […] The expression level of a downstream protein c-Myc was measured. In this assay, either the inhibition of BRD4 (e.g., by binding and blocking the active site of BRD4) or the degradation of BRD4 results in the down-regulation of the expression level of c-Myc.
c-Myc ELISA Assay Protocol
22RV-1 cells were purchased from ATCC and cultured in RPMI+10% FBS media. Cells were harvested using trypsin (Gibco #25200-114), counted and seeded at 30,000 cells/well at a volume of 75 μL/well in RPMI+10% FBS media in 96-well plates. The cells were dosed with compounds diluted in 0.1% DMSO, incubated for 18h then washed and lysed in 50 uL RIPA buffer (50 mM Tris pH8, 150 mM NaCl, 1% Tx-100, 0.1% SDS, 0.5% sodium deoxycholate) supplemented with protease and phosphatase inhibitors. The lysates were clarified at 4000 rpm at 4° C. for 10 minutes then aliquots were added into a 96-well ELISA plate of Novex Human c-Myc ELISA kit from Life Technologies Catalog #KHO2041. 50 µL of c-Myc Detection antibody was added into every well, the plates incubated at room temperature for 3 hrs, then washed with ELISA wash buffer. 100 μL of the anti-rabbit IgG-HRP secondary antibody was added to each well and incubated at room temperature for 30 minutes. The plates were washed with ELISA wash buffer, 100 μL TMB added to each well, and then monitored every 5 minutes for a color change. 100 μL of stop solution is added and the plates read at 450 nm.
(In an ELISA, binding on a coated surface is turned into a signal by an enzyme label.)

The target in assay [2] is T1, AR (Homo sapiens, UniProt P10275+P40337, T878A).
T1 construct: degradation Dmax of AR in LNCaP cells; endogenous in cells; host or cells: LNCaP
Put plainly: AR degradation in LNCaP cells (androgen receptor ELISA). The class given is cell-based. The settings on record: LNCaP cells. As for the experimental part:
The connector linking the AR-binding warhead and the VHL-binding warhead was systematically probed from 4 to 23 atoms. The AR degradation potency DC50 and the maximum percentage of degradation Dmax of AR in LNCaP cells were measured for each of these compounds. […] The binary binding potency with respect to AR was also measured for some of the compounds by the cell-based ligand (R1881) displacement assay. The ratio α between the AR-binding potency and the degradation potency are calculated when it is possible.
Androgen Receptor ELISA Assay
The protocols used with VCaP cells are described below. The androgen receptor ELISA assay was performed using PathScan AR ELISA (Cell Signaling Catalog #12850) according to the following assay steps: […]

[3] abbreviates: 22RV1 cells, BRD4-cereblon series, Table 2.
The mark [4] stands for this setting: 22RV1 cells, BRD4-cereblon series, Table 2, read-out: c-Myc expression inhibition IC50.
Where [5] appears, read: 22RV1 cells, BRD4-VHL series, Table 3.
Where [6] appears, read: 22RV1 cells, BRD4-VHL series, Table 3, read-out: c-Myc expression inhibition IC50.
Setting [7] is: 22RV1 cells, connector composition changes, Table 4.
The mark [8] stands for this setting: 22RV1 cells, connector composition changes, Table 4, read-out: c-Myc expression inhibition IC50.

T1 sequence (Q15370 whole entry): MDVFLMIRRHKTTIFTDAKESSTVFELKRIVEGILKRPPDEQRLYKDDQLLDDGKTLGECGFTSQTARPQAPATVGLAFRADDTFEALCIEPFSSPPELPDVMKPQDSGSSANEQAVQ
T1 sequence (P40337 whole entry): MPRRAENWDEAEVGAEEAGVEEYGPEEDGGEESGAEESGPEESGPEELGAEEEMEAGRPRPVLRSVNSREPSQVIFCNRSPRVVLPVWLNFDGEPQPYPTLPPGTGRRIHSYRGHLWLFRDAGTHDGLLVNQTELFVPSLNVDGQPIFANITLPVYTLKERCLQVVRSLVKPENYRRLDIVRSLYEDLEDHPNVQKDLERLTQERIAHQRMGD
T1 sequence (P10275 whole entry T878A): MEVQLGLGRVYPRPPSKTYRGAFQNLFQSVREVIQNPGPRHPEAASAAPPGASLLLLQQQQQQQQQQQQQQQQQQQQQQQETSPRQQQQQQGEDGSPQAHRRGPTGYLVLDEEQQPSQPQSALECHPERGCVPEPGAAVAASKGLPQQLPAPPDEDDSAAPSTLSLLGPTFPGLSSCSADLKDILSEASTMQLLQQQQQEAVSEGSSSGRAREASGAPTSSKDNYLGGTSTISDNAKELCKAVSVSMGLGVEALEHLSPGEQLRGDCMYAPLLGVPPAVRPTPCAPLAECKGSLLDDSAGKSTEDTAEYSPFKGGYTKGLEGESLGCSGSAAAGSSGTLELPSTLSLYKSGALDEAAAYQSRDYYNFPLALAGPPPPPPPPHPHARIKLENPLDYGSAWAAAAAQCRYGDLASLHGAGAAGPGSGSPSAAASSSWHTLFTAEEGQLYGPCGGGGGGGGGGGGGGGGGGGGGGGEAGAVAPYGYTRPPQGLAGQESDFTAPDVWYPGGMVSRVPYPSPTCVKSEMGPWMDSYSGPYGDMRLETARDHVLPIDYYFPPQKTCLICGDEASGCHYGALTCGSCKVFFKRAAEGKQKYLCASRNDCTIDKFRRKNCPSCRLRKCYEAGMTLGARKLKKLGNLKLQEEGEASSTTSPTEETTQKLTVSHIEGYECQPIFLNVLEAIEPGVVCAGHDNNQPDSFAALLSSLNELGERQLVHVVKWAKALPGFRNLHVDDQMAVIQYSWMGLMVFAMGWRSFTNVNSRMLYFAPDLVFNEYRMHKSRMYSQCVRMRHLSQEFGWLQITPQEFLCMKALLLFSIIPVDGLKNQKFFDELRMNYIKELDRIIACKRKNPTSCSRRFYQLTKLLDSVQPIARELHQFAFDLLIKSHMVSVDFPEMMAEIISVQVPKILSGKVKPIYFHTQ
T1 sequence (Q15369 whole entry, further chain): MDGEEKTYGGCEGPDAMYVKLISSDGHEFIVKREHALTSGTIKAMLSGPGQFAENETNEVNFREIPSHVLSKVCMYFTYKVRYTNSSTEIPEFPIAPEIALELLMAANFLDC

Regarding `Cc1sc2c(c1C)C(c1ccc(Cl)cc1)=NC(CC(=O)NCCOCCNc1cccc3c1C(=O)N(C1CCC(=O)NC1=O)C3=O)c1nnc(C)n1-2` (mixture of isomers) [Compound 23], the “maximum inhibition Imax” value in assay [1] (setting [3]) worked out at 100%. Further, the IC50 in assay [1] (setting [4]) was found to be 0.682 nM.
For `Cc1sc2c(c1C)C(c1ccc(Cl)cc1)=NC(CC(=O)NCCCNc1cccc3c1C(=O)N(C1CCC(=O)NC1=O)C3=O)c1nnc(C)n1-2` (mixture of isomers) [Compound 20] the same measures were 93% and 123 nM.
As to `Cc1ncsc1-c1ccc(CNC(=O)[C@@H]2C[C@@H](O)CN2C(=O)[C@@H](NC(=O)CCOCCOc2ccc(N3C(=S)N(c4ccc(C#N)c(C(F)(F)F)c4)C(=O)C3(C)C)cc2)C(C)(C)C)cc1` [Compound 3], in assay [2], the “maximum AR degradation Dmax” value was 56%.
Turning to `Cc1sc2c(c1C)C(c1ccc(Cl)cc1)=NC(CC(=O)NCCCCCNc1cccc3c1C(=O)N(C1CCC(=O)NC1=O)C3=O)c1nnc(C)n1-2` (mixture of isomers) [Compound 22], the “maximum inhibition Imax” value in assay [1] (setting [3]) was found to be 100%. Also, in assay [1] (setting [4]), the IC50 was found to be 3.79 nM.
For `Cc1sc2c(c1C)C(c1ccc(Cl)cc1)=NC(CC(=O)NCCCCNc1cccc3c1C(=O)N(C1CCC(=O)NC1=O)C3=O)c1nnc(C)n1-2` (mixture of isomers) [Compound 21], the “maximum inhibition Imax” value in assay [1] (setting [3]) came to 88%. Moreover, the IC50 in assay [1] (setting [4]) amounted to 250 nM.
With `Cc1ncsc1-c1ccc(CNC(=O)[C@@H]2C[C@@H](O)CN2C(=O)[C@@H](NC(=O)COCCOCCOCCNC(=O)C[C@@H]2N=C(c3ccc(Cl)cc3)c3c(sc(C)c3C)-n3c(C)nnc32)C(C)(C)C)cc1` [Compound 31], the “maximum inhibition Imax” value in assay [1] (setting [5]) is 99.3%. In addition, the IC50 in assay [1] (setting [6]) stood at 1.22 nM.
The like results for `Cc1ncsc1-c1ccc(CNC(=O)[C@@H]2C[C@@H](O)CN2C(=O)[C@@H](NC(=O)COCCCOCCCNC(=O)C[C@@H]2N=C(c3ccc(Cl)cc3)c3c(sc(C)c3C)-n3c(C)nnc32)C(C)(C)C)cc1` [Compound 30] were, in that order, 100% and 19.4 nM.
On to `Cc1sc2c(c1C)C(c1ccc(Cl)cc1)=NC(CC(=O)NCCOCCOCCNc1cccc3c1C(=O)N(C1CCC(=O)NC1=O)C3=O)c1nnc(C)n1-2` (mixture of isomers) [Compound 25], for which the “maximum inhibition Imax” value in assay [1] (setting [3]) was determined as 100%. The IC50 in assay [1] (setting [4]) stood at 13 nM.
For the compound `Cc1ncsc1-c1ccc(CNC(=O)[C@@H]2C[C@@H](O)CN2C(=O)[C@@H](NC(=O)COCCCNC(=O)C[C@@H]2N=C(c3ccc(Cl)cc3)c3c(sc(C)c3C)-n3c(C)nnc32)C(C)(C)C)cc1` [Compound 26], the “maximum inhibition Imax” value in assay [1] (setting [5]) stood at 98%. Also, the IC50 in assay [1] (setting [6]) is 95 nM.
With `Cc1sc2c(c1C)C(c1ccc(Cl)cc1)=N[C@@H](CC(=O)OC(C)(C)C)c1nnc(C)n1-2` [JQ1, reference compound], the “maximum inhibition Imax” value in assay [1] (setting [3]) is 93%. Further, the IC50 was found to be 101 nM in assay [1] (Homo sapiens, 22Rv1, read-out: c-Myc expression IC50) and 101 nM in assay [1] (Homo sapiens, 22Rv1, read-out: c-Myc expression inhibition IC50).
For the compound `Cc1ncsc1-c1ccc(CNC(=O)[C@@H]2C[C@@H](O)CN2C(=O)[C@@H](NC(=O)COCCCCOCCCCCOc2ccc(N3C(=S)N(c4ccc(C#N)c(C(F)(F)F)c4)C(=O)C3(C)C)cc2)C(C)(C)C)cc1` [Compound 10], the “maximum AR degradation Dmax” value in assay [2] stood at 77%. In assay [2] (read-out: AR degradation potency DC50), the DC50 stood at 60 nM.
With `Cc1ncsc1-c1ccc(CNC(=O)[C@@H]2C[C@@H](O)CN2C(=O)[C@@H](NC(=O)COCCOCCNC(=O)C[C@@H]2N=C(c3ccc(Cl)cc3)c3c(sc(C)c3C)-n3c(C)nnc32)C(C)(C)C)cc1` [Compound 28], in assay [1] (setting [5]), the “maximum inhibition Imax” value turned out to be 94%. The IC50 in assay [1] (setting [6]) stood at 80.5 nM.
With `Cc1ncsc1-c1ccc(CNC(=O)[C@@H]2C[C@@H](O)CN2C(=O)[C@@H](NC(=O)COCCOCCOCCCCNC(=O)C[C@@H]2N=C(c3ccc(Cl)cc3)c3c(sc(C)c3C)-n3c(C)nnc32)C(C)(C)C)cc1` [Compound 33], the “maximum inhibition Imax” value in assay [1] (setting [5]) is reported as 97%. The IC50 in assay [1] (setting [6]) came out at 5 nM.
For the compound `Cc1ncsc1-c1ccc(CNC(=O)[C@@H]2C[C@@H](O)CN2C(=O)[C@@H](NC(=O)COCCOCCOCCOCCNC(=O)C[C@@H]2N=C(c3ccc(Cl)cc3)c3c(sc(C)c3C)-n3c(C)nnc32)C(C)(C)C)cc1` [Compound 34], in assay [1] (setting [5]), the “maximum inhibition Imax” value was determined as 94%. In assay [1] (setting [6]), the IC50 came out at 34 nM.
In the case of `Cc1ncsc1-c1ccc(CNC(=O)[C@@H]2C[C@@H](O)CN2C(=O)[C@@H](NC(=O)COCCCSCCNC(=O)C[C@@H]2N=C(c3ccc(Cl)cc3)c3c(sc(C)c3C)-n3c(C)nnc32)C(C)(C)C)cc1` [Compound 40], the “maximum inhibition Imax” value in assay [1] (setting [7]) is listed as 99%. Further, the IC50 in assay [1] (setting [8]) is 20.9 nM.
Take `Cc1ncsc1-c1ccc(CNC(=O)[C@@H]2C[C@@H](O)CN2C(=O)[C@@H](NC(=O)COCCOCCOCCCCOCCOCCNC(=O)C[C@@H]2N=C(c3ccc(Cl)cc3)c3c(sc(C)c3C)-n3c(C)nnc32)C(C)(C)C)cc1` [Compound 37]: the “maximum inhibition Imax” value in assay [1] (setting [5]) is recorded as 96.4%. Also, in assay [1] (setting [6]), the IC50 is 202 nM.
For `Cc1ncsc1-c1ccc(CNC(=O)[C@@H]2C[C@@H](O)CN2C(=O)[C@@H](NC(=O)COCCOCCOCCOCCOCCOCCNC(=O)C[C@@H]2N=C(c3ccc(Cl)cc3)c3c(sc(C)c3C)-n3c(C)nnc32)C(C)(C)C)cc1` [Compound 38], in assay [1] (setting [5]), the “maximum inhibition Imax” value turned out to be 62.2%. In addition, the IC50 in assay [1] (setting [6]) was 707 nM.
Consider `Cc1ncsc1-c1ccc(CNC(=O)[C@@H]2C[C@@H](O)CN2C(=O)[C@@H](NC(=O)COCCCOCCNC(=O)C[C@@H]2N=C(c3ccc(Cl)cc3)c3c(sc(C)c3C)-n3c(C)nnc32)C(C)(C)C)cc1` [Compound 29], for which the “maximum inhibition Imax” value in assay [1] (setting [5]) and in assay [1] (setting [7]) was 97% each time. The IC50 in assay [1] (setting [6]) and in assay [1] (setting [8]) was 0.16 nM in each case.
Turning to `Cc1ncsc1-c1ccc(CNC(=O)[C@@H]2C[C@@H](O)CN2C(=O)[C@@H](NC(=O)COCCCOCCCCCNC(=O)C[C@@H]2N=C(c3ccc(Cl)cc3)c3c(sc(C)c3C)-n3c(C)nnc32)C(C)(C)C)cc1` [Compound 32], the “maximum inhibition Imax” value in assay [1] (setting [5]) came out at 98%. For the same compound, the IC50 in assay [1] (setting [6]) was found to be 0.86 nM.
For `Cc1sc2c(c1C)C(c1ccc(Cl)cc1)=NC(CC(=O)NCCNc1cccc3c1C(=O)N(C1CCC(=O)NC1=O)C3=O)c1nnc(C)n1-2` (mixture of isomers) [Compound 19], the “maximum inhibition Imax” value in assay [1] (setting [3]) is 96%. In addition, the IC50 in assay [1] (setting [4]) turned out to be 187 nM.
As to `Cc1ncsc1-c1ccc(CNC(=O)[C@@H]2C[C@@H](O)CN2C(=O)[C@@H](NC(=O)COCCCS(=O)(=O)CCNC(=O)C[C@@H]2N=C(c3ccc(Cl)cc3)c3c(sc(C)c3C)-n3c(C)nnc32)C(C)(C)C)cc1` [Compound 42], the “maximum inhibition Imax” value in assay [1] (setting [7]) is reported as 88.3%. The IC50 in assay [1] (setting [8]) came to 122 nM.
`Cc1ncsc1-c1ccc(CNC(=O)[C@@H]2C[C@@H](O)CN2C(=O)[C@@H](NC(=O)CCCCCCCCNC(=O)C[C@@H]2N=C(c3ccc(Cl)cc3)c3c(sc(C)c3C)-n3c(C)nnc32)C(C)(C)C)cc1` [Compound 39]: the “maximum inhibition Imax” value in assay [1] (setting [7]) stood at 95.4%. In addition, the IC50 in assay [1] (setting [8]) is 10.2 nM.
As to `Cc1ncsc1-c1ccc(CNC(=O)[C@@H]2C[C@@H](O)CN2C(=O)[C@@H](NC(=O)COCCCCNC(=O)C[C@@H]2N=C(c3ccc(Cl)cc3)c3c(sc(C)c3C)-n3c(C)nnc32)C(C)(C)C)cc1` [Compound 27], the “maximum inhibition Imax” value in assay [1] (setting [5]) was determined as 100%. Besides, in assay [1] (setting [6]), the IC50 came to 78 nM.
In the case of `Cc1ncsc1-c1ccc(CNC(=O)[C@@H]2C[C@@H](O)CN2C(=O)[C@@H](NC(=O)COCCCCCCNC(=O)C[C@@H]2N=C(c3ccc(Cl)cc3)c3c(sc(C)c3C)-n3c(C)nnc32)C(C)(C)C)cc1` [Compound 41], the “maximum inhibition Imax” value in assay [1] (setting [7]) was found to be 100%. Further, in assay [1] (setting [8]), the IC50 was 25.7 nM.
